As usually defined, the melting point is the temperature, or range, at which the solid turns liquid.

The structures appear in SMILES notation.

`CCCCCCS(=O)(=O)c1nn2c(=O)cc(C#N)nc2s1` gave a melting point of 144 to 146 °C.
The value for `COc1ccc(-c2nc(OCC#N)c3cc(OC)ccc3c2[N+](=O)[O-])cc1` was 192 to 194 °C; that for `Cc1cccnc1C1CC(C)(C)Oc2ccc([N+](=O)[O-])cc21` (configuration not stated) was 164 to 165 °C.
`CCc1cn(C2CC(O)C(CCC(=O)Cc3c(Cl)cccc3Cl)O2)c(=O)[nH]c1=O` (configuration not stated) came in with a melting point of 229 to 230 °C.
`N#CC1=C(Nc2ccc(F)cc2)CCC1` gave a melting point of 100 to 102 °C.
For the compound `Nc1ncccc1OCc1c(F)cccc1F`, the melting point is 124 to 128 °C.
Compound `Cc1cc([N+](=O)[O-])cc2c(Cl)c(C#N)cnc12` returned a melting point of 210 to 212 °C.
`Nn1c(-c2ccccc2)nc2cc(C(F)(F)F)ccc21`: the melting point lay within 200 to 203 °C.
In the case of `Cn1c(=O)c2c(nc(Cl)n2Cc2ccccc2Br)n(C)c1=O` it was 165 to 167 °C; in that of `Cc1ccc(F)cc1C(=O)Nc1ccc(C(=O)N2Cc3cccn3Cc3ccccc32)cc1`, 170 to 180 °C; in that of `C(=C(c1ccccc1)c1ccccc1)C1CCN(CCCCCCc2cncnc2)CC1`, 88 to 90 °C.
As for `CCC(=O)N1CCC(NC(=O)Nc2ccccc2Cl)CC1`, the melting point fell in the range of 150 to 157 °C.
In turn, `CCOC(=O)Nc1ccn2cc(C)nc2c1Br` yielded a melting point of 137 to 138 °C.
Compound `c1cc2cc(N3CCOCC3)ccc2s1` yielded a melting point of 127 to 132 °C.
In the case of `CC(=O)Nc1cc(C)cc(OCc2ccccc2)c1C` it was 139 to 140 °C; in that of `Fc1ccc(Nc2nc(-c3ccc(F)cc3)cs2)cc1`, 127 °C; in that of `CCOc1ccc(C(OC2CCN(CCCCCC(=O)O)CC2)c2ccccc2)cc1` (configuration not stated), 110 to 112 °C.
In the case of `CC(C)(C)c1cc(CCc2ccccc2NC(=O)NC(C)(C)c2ccc(Cl)c(Cl)c2)cc(C(C)(C)C)c1O` it was 203 to 205 °C.
In the case of `C=CC(=O)NC1=CC(O)(C(C)=O)C(C(=O)O)C=C1` (configuration not stated) it was 171 °C; in that of `O=C(COc1cccnc1)C12CC3CC(CC(C3)C1)C2`, 73 to 75 °C; in that of `Clc1ccc(N2CC3CCC(C2)N3Cc2ccccc2)cc1`, 115 to 117 °C.
Compound `CCCCCN1CC[C@@H](c2ccccc2C(F)(F)F)[C@H](CO)C1` (racemic) yielded a melting point of 110 °C.
The value for `CN(C)CCN1C(=O)c2cscc2N(C)c2ccccc21` was 147 to 149 °C; that for `O=c1[nH]nccc1-c1ccccc1OC(F)(F)C(F)F` was 178 °C; that for `Cc1cc(CO)c2cccc(OCc3ccccc3)c2n1` was 137 to 141 °C.
As for `O=S(=O)(NC1CCN(S(=O)(=O)c2cccs2)C1)c1ccc(Cl)cc1` (configuration not stated), the melting point is 115 to 116 °C.
`CC(C)(C)c1cn2cccc(C=O)c2n1`: the melting point fell in the range of 60 to 62 °C.
Take `COc1ccc(-c2cnc3[nH]cc(C#N)c3n2)cc1OC`: the melting point lay within 284 to 285 °C.
The value for `CCCc1nc2c(ccc3cc(C(=O)N4CCC(Cc5ccccc5)CC4)[nH]c32)o1` was 195 to 196 °C.
`COc1cc2c(cc1OC)CC(=O)N(CCC=O)C=C2` yielded a melting point of 95 to 96 °C.
Take `O=C(O)c1ccc(-c2cccc(O)c2)cc1`: the melting point came out at 180 °C.
The value for `CCC1OC(=O)N(CCc2ccc(NC(=O)c3cccs3)cc2)N=C1c1ccc(OC)c(OC)c1` (configuration not stated) was 197 °C; that for `N#Cc1cccc(-n2ncc(C(=O)O)c2C#N)c1` was 190 to 192 °C.
The value for `Cc1nc[nH]c1CSCCNC(=C[N+](=O)[O-])NCCSCc1nccs1` was 119 to 120 °C; that for `C=CCNc1nc(C=O)cs1` was 106 to 107 °C; that for `N#Cc1[nH]c2ccc(Br)cc2c1-c1ccccc1` was 227 to 230 °C.
`CN(C)CCCOc1ccc(-c2nnc(-c3ccc(-c4ccccc4)cc3)o2)cc1` showed a melting point of 130 to 132 °C.
For `CN(C)C=Nc1ccc(-n2ncnc2-c2ccc(F)cc2)cc1`, the melting point was in the range of 90 to 93 °C.
`CCNC(=Nc1ccccc1N1CCOCC1)NC` registered a melting point of 118 to 119 °C.
Take `COC(=O)CCSc1scnc1C(=O)O`: the melting point was in the range of 112 to 116 °C.
The value for `CN(CC(=O)C(Cc1ccccc1)NC(=O)c1ccccc1)C(=O)OC(Cc1ccccc1)C(=O)O` (configuration not stated) was 52 to 60 °C; that for `COc1ccc(C)c([N+](=O)[O-])c1C` was 53 to 55 °C; that for `COc1cccc2c(O)cnnc12` was 160 to 163 °C.
Consider `CC(C)(C)c1cc(C=CC(=O)NN)cc(C(C)(C)C)c1O`, for which the melting point came out at 166 °C.
Regarding `COc1cn(-c2cc3c(cc2F)OC(F)(F)O3)nc(-c2ccnn2-c2ccccc2)c1=O`, the melting point lay in the range of 200 to 202 °C.
The value for `O=C1CC[C@@H](CCCO)[C@H](c2ccc(OCc3ccccc3)cc2OCc2ccccc2)C1` (relative stereo) was 110 to 117 °C.
The value for `O=C(Nc1ccccc1)C1=CCN(Cc2c[nH]c3ncccc23)CC1` was 217 to 220 °C; that for `O=C(O)c1cc(=O)c(Cl)c(-c2ccccc2)o1` was 216 to 218 °C; that for `COc1ccc2c(c1OC)CCN(Cc1ccc(-c3ccc(-c4cccc(N)n4)cc3)cc1)C2` was 205 to 209 °C.
`O=C(O)COc1coc2ccccc2c1=O` returned a melting point of 154 to 164 °C.
In the case of `C[C@H](Nc1nc(C(N)=O)nc(Cl)c1-c1c(F)cc(F)cc1F)C(F)(F)F` it was 157 to 162 °C; in that of `C=CCCC(=O)N1C(=O)OC[C@@H]1C(C)C`, 119 to 120 °C; in that of `O=C(Cc1ccccc1)c1ccncc1`, 94 to 96 °C.
In the case of `COc1ccc2c(OCCN3CCOCC3)c(-c3ccccc3)c(=O)oc2c1` it was 95 to 96 °C.
`CCN(CC)c1nc(C)nc2scnc12` showed a melting point of 41.6 to 43 °C.
The value for `Cc1c(C)c(N2CCN(c3ccnn3C)CC2)c(C)c2c1OC(C)(C)C2` was 126 to 128 °C.
In the case of `Cc1nc(C)c(Cl)c(NCc2cccc(Oc3ccc4ncc([N+](=O)[O-])n4n3)c2)n1` it was 222 to 223 °C; in that of `CC(C)NC(=O)c1cc(Oc2ccc3c(C(=O)Nc4cccc(C(F)(F)F)c4)cccc3c2)ncn1`, 205 to 208 °C.
The compound `COc1cc(C(=O)c2c[nH]c(-c3cn(S(=O)(=O)c4ccccc4)c4ccccc34)n2)cc(OC)c1OC` returned a melting point of 110 to 112 °C.
`CC(=O)Nc1ccc(/C=C/C(=O)NCC(=O)N(C)c2ccc(C)c(CCl)c2C)cn1` yielded a melting point of 218 to 220 °C.
For the compound `CC#CCOc1cc(Oc2cccc(F)c2)ncn1`, the melting point stood at 60.1 °C.
`CCOC(=O)Cc1c(C)[nH]c2ccc(F)cc12`: the melting point is 61 to 62 °C.
With `CNc1c(NCCSCc2ccc(CN(C)C)s2)c(=O)c1=O`, the melting point fell in the range of 185 to 187 °C.
In the case of `CC(NC(Nc1cccnc1)=C(C#N)S(=O)(=O)c1ccc(Cl)cc1)C(C)(C)C` (configuration not stated), the melting point is 172 to 174 °C.
In turn, `Cc1ccc2[nH]c(=O)n(C3CCNCC3)c2c1` gave a melting point above 300 °C.
In turn, `COC(=O)/C=C/Cn1c(=O)c2cc(C(=O)NCc3ccc(OC)cc3)sc2n(C)c1=O` showed a melting point of 169 to 171 °C.
Compound `CC(C)(CCCCCCCCCCCC(C)(C)C(=O)O)C(=O)O` registered a melting point of 95 to 96 °C.

The record behind these values is a melting point compilation (Tetko et al.; mined from patent text by program, amines drawn as free bases though some values may be those of a salt).
